What was measured:
[1] = tested on: Vibrio harveyi BB886; experiment: Bioluminescence assay of quorum-sensing antagonistic ability with reporter strain Vibrio harveyi BB886; type: cell-based; conditions: 2 hours
Experimental: Quorum-sensing antagonistic ability of 2-(phenylcarbonothioylthio) acetyl homoserine lactone as described in Formula 8 was evaluated using Vibrio harveyi strain BB886 which responds to the AI-1, i.e., N-(3-hydroxybutanoyl)-1-homoserine lactone (3-OH—C4-HSL) as reporter strain. Vibrio harveyi strain BB886 was grown in LBS medium (10 g/L tryptone, 5 g/L yeast extract, 20 g/L NaCl) at 30° C. For the bioluminescence assay, an overnight culture was diluted 100-fold in a sterile AI bioassay (AB) medium (300 mM NaCl, 50 mM MgSO4, 0.2% (w/v) vitamin-free casamino acid, 10 mM potassium phosphate, 1 mM 1-arginine, 1% glycerol; pH 7.5).
After vaporizing chloroform in 4 test tubes at 30° C. for 2 hours, 4.0 mL of the diluted reporter strain culture was added to No. 1˜No. 4 test tubes and incubated at 30° C. Luminescence measurements were performed after 2 hours of incubation using a luminescence meter (Thermo Electron Co.). Bacterial cell density was measured by optical densities at 600 nm (OD600) using a UV spectrophotometer (HP8452A, H.P.). The antagonist activities of 2-(phenylcarbonothioylthio) acetyl homoserine lactone were expressed as a specific luminescence; relative light units/OD600. […]

[2] = tested on: P. aeruginosa; experiment: Microscopy of P. aeruginosa biofilm grown on specimens for 48 hours; type: cell-based, Pseudomonas aeruginosa; conditions: biofilm grown 48 hours
Experimental: Specimens were set in nutrient flasks containing compounds according to the first exemplary embodiment 1, comparative examples 1 and 2. Biofilm was grown on the specimens for 48 hours. The specimen were examined using microscope. Furthermore, specimens were set in nutrient flasks containing compounds according to exemplary embodiment 6 and comparative example 2. Biofilm on the specimens was grown for 48 hours. The specimens were examined using a microscope.

[3] = tested on: P. aeruginosa; experiment: Inhibiting ability against biofilm formation: count of adhesive P. aeruginosa on specimen surface after 4 hours; type: cell-based, Pseudomonas aeruginosa; conditions: 10 μmol/L, table shows Comparative example 1 (distilled water) = 100
Experimental: Inhibiting ability against biofilm formation of quorum-sensing antagonist prepared according to exemplary embodiments 1-7 was evaluated.
Specimen was set in nutrient flask containing 10 μmol/L of quorum-sensing antagonist prepared according to exemplary embodiments 1-7 and P. aeruginosa which has strong adhesive character on surface. Numbers of adhesive P. aeruginosa on surface were counted after 4 hours. Distilled water was poured into nutrient flask instead of quorum-sensing antagonist as a comparison example 1. Numbers of adhesive P. aeruginosa on surface were counted after 4 hours. […] Numbers of adhesive P. aeruginosa on surface were counted after 4 hours. […]

[4] = tested on: Agrobacterium tumefaciens A136(pTiA136, pCF218, pCF372); experiment: LacZ luminescence assay of quorum-sensing antagonistic ability with reporter strain A. tumefaciens A136; type: cell-based; conditions: 0.5 μM autoinducer 3-oxo-C8-HSL plus 5 μM of compound
Experimental: A. tumefaciens A136 (pTiA136, pCF218, and pCF372) was cultured in Luria-Bertani (LB) media with 50 μg/mL spectinomycin and 4.5 μg/mL tetracycline at 30° C. For the bioassay of 2-(phenylcarbonothioylthio) acetyl homoserine lactone, an overnight culture was diluted at 1:100 and incubated up to an optical density of 0.3 at 600 nm (OD600) at 30° C.
No. 1 solution contained 0.5 μM of N-3-oxootanoyl homoserine lactone.
After vaporizing chloroform in 2 test tubes at 30° C. for 2 hours, 4.0 mL of the diluted reporter strain culture was added to No. 1 and No. 2 test tubes.
LacZ quantative analysis for test tubes described above was performed using Tropix-plus kit (Applied Biosystems, USA). Luminescence measurements were performed after 2 hours of incubation using a luminescence meter (Thermo Electron Co.). Bacterial cell density was measured by optical densities at 600 nm (OD600) using a UV spectrophotometer (HP8452A, H. P.). The antagonist activities of 2-(phenylcarbonothioylthio) acetyl homoserine lactone were expressed as a specific luminescence; relative light units/OD600.

[5] = tested on: E. coli DH5α co-transformed by pJN105L (LasR expression plasmid) and pSC11 (lasI::lacZ fusion reporter plasmid); experiment: LacZ bioassay of quorum-sensing antagonistic ability with co-transformed E. coli DH5α (LasR reporter); type: cell-based; conditions: 1 μM autoinducer 3-oxo-C12-HSL plus 1, 2 or 10 μM of compound
Experimental: Transformant E. coli was cultured in Luria-Bertani (LB) broth with 10 μg/mL gentamicin and 50 μg/mL ampicillin at 37° C.
For LacZ bioassay of 2-(phenylcarbonothioylthio) acetyl homoserine lactone, an overnight culture was diluted at 1:100 and incubated up to an optical density of 0.3 at 600 nm (OD600) at 30° C. Then, 0.4% arabinose was added.
After vaporizing chloroform in 4 test tubes at 37° C. for 2 hours, 4.0 mL of the diluted reporter strain culture was added to No. 1˜No. 4 test tubes.
LacZ Bioassay for test tubes described above was performed using Tropix-plus kit (Applied Biosystems, USA). Luminescence measurements were performed after 2 hours of incubation using a luminescence meter (Thermo Electron Co.). Bacterial cell density was measured by optical densities at 600 nm (OD600) using a UV spectrophotometer (HP8452A, H.P.).
The antagonist activities of 2-(phenylcarbonothioylthio) acetyl homoserine lactone were expressed as a specific luminescence; relative light units/OD600.

For C[C@@H](O)CC(=O)N[C@H]1CCOC1=O [3-hydroxybutanoylhomoserine lactone, N-(3-hydroxybutanoyl)-1-homoserine lactone, reference compound], the “luminescence intensity per V. harveyi (relative light units/OD600)” value ([1]; sample containing only 1 μM autoinducer) was “relatively high”.
In the case of CCCCCC(=O)CC(=O)N[C@H]1CCOC1=O [Autoinducer], the “P. aeruginosa attached on specimen (microscopic image)” value [2] is reported as “plentifully observed”.
CCCCCCCCCC(=O)CC(=O)N[C@H]1CCOC1=O [Comparative example 2, N-3-oxododecanoylhomoserinelactone, reference compound] was tested, and the “% of adhesive P. aeruginosa relative to comparative example” value [3] was 190%.
O=C(CSc1ccncc1)NC1CCOC1=O (stereo not shown) [Example 1, N-(2-oxo-tetrahydrofuran-3-yl)-2-(pyridin-4-ylthio)acetamide] was tested, and the “% of adhesive P. aeruginosa relative to comparative example” value [3] was 40%.
For O=C(CSc1ncccn1)NC1CCOC1=O (stereo not shown) [Example 2], the “% of adhesive P. aeruginosa relative to comparative example” value [3] was 51%.
O=C(O)CSCC(=O)NC1CCOC1=O (stereo not shown) [Example 3, 2-(2-oxo-2-(2-oxo-tetrahydrofuran-3-ylamino)ethylthio)acetic acid] was tested, and the “% of adhesive P. aeruginosa relative to comparative example” value [3] was 33%.
For O=C(O)CSCCSCC(=O)NC1CCOC1=O (stereo not shown) [Example 4, 2-(2-(2-oxo-2-(2-oxo-tetrahydrofuran-3-ylamino)ethylthio)ethylthio)acetic acid], the “% of adhesive P. aeruginosa relative to comparative example” value [3] was 13%.
In the case of CSCC(=O)NC1CCOC1=O (stereo not shown) [Example 5, 2-(methylthio)-N-(2-oxo-tetrahydrofuran-3-yl)acetamide], the “% of adhesive P. aeruginosa relative to comparative example” value [3] is reported as 30%.
O=C(CSC(=S)c1ccccc1)NC1CCOC1=O (stereo not shown) [Example 6, 2-(phenylcarbonothioylthio)acetyl homoserine lactone] was tested, and the “luminescence intensity per V. harveyi (relative light units/OD600)” value ([1]; 1 μM autoinducer 3-OH-C4-HSL plus 1, 5 or 10 μM of compound) was “decreased remarkably”, the “luminescence intensity per A. tumefaciens A136 (relative light units/OD600)” value [4] was “decreased remarkably” and the “luminescence intensity per co-transformed E. coli DH5α (relative light units/OD600)” value [5] was “decreased remarkably”. For the same compound, the “% of adhesive P. aeruginosa relative to comparative example” value [3] was 20%.
In the case of O=C(O)CSC(=S)SCC(=O)NC1CCOC1=O (stereo not shown) [Example 7], the “% of adhesive P. aeruginosa relative to comparative example” value [3] is reported as 30%.

— patent US8507554B2 (priority 2006, dated 2013)
